Results reported in paper PMC10873978, “Novel tetrahydroisoquinolines as DHFR and CDK2 inhibitors: synthesis, characterization, anticancer activity and antioxidant properties” (BMC Chemistry, 2024).

Key:
MCF7 cell line = assay: In vitro cytotoxic activity, MTT method, MCF7; format: cell-based, human; conditions: for IC50: Homo sapiens, MCF7, MCF7 cell line, MTT
Description: (§1) Cell lines: The in vitro human breast cancerous cell line (MCF7), lung cancerous cell lines (A549) and normal cell lines were purchased from Serum and Vaccine formulation in Cairo-Egypt.
(§2) In vitro cytotoxic activity of all synthesized compounds against two human breast cell line (MCF7) and lung cell lines (A549) was evaluated according to the MTT method. Firstly, Growth the cell line medium in 96 well tissue culture plate was injected with 10^5 cells/mL (100 uL/plate well) of the cell line and incubated at 37 °C for 24 h to develop a monolayer sheet then the formed growth medium was poured from 96 well microtiter plates after the confluent sheet of cells. […] Secondly, add 0.1 mL of each concentration tetrahydroisoquinoline sample to each plate. The plates were incubated at 37 °C. Thirdly MTT solution (5 mg/mL in PBS) is prepared. Add 20 µL of MTT solution to each well plates. And shaking in 150 rpm for 5 min, to mix the MTT into the media. Then incubate at (37 °C, 5% CO2) for 1–5 h. Finally read the optical density at 560 nm and subtract background at 620 nm.
(§3) In this work, doxorubicin was used as a positive control drug for comparison with the synthesized compounds under the same experimental conditions.

A549 cell line = assay: In vitro cytotoxic activity, MTT method, A549; conditions: for IC50: Homo sapiens, read-out: IC50 ± SD
Description: as §1, §2, §3

`CCOC(=O)CSc1nc(C)c2c(c1C#N)CC(C)(O)C(C(C)=O)C2c1ccc(N(C)C)cc1` (stereo not drawn) [Compound 4, Ethyl 2-((7-Acetyl-4-cyano-1,6-dimethyl-6-hydroxy-8-(4-N,N-dimethylamino-phenyl)-5,6,7,8-tetrahydroisoquinolin-3-yl)thio)acetate] gave an IC50 (MCF7 cell line) of 3074 ± 8 nM, a Toxicity % (MCF7 cell line; MCF7, 0.0487 µMol) of 0.03467% and a Viability % (MCF7 cell line; MCF7, 0.0487 µMol) of 99.94%. For the same compound, the Toxicity % (MCF7 cell line; MCF7, 0.0975 µMol) was 0.06434%, the Viability % (MCF7 cell line; MCF7, 0.0975 µMol) was 99.94% and the Toxicity % (MCF7 cell line; MCF7, 0.195 µMol) was 0.0817%. It also gave a Viability % (MCF7 cell line; MCF7, 0.195 µMol) of 99.92%, a Viability % (MCF7 cell line; MCF7, 0.391 µMol) of 100% and a Toxicity % (MCF7 cell line; MCF7, 0.781 µMol) of 7.925%. It also gave a Viability % (MCF7 cell line; MCF7, 0.781 µMol) of 92.08%, a Toxicity % (MCF7 cell line; MCF7, 1.562 µMol) of 23.41% and a Viability % (MCF7 cell line; MCF7, 1.562 µMol) of 76.59%. For the same compound, the Toxicity % (MCF7 cell line; MCF7, 3.125 µMol) was 36.89%, the Viability % (MCF7 cell line; MCF7, 3.125 µMol) was 63.11% and the Toxicity % (MCF7 cell line; MCF7, 6.25 µMol) was 82.07%. It also gave a Viability % (MCF7 cell line; MCF7, 6.25 µMol) of 17.93%, a Toxicity % (MCF7 cell line; MCF7, 12.5 µMol) of 91.75% and a Viability % (MCF7 cell line; MCF7, 12.5 µMol) of 8.252%. For the same compound, the Toxicity % (MCF7 cell line; MCF7, 25 µMol) was 96.81%, the Viability % (MCF7 cell line; MCF7, 25 µMol) was 3.186% and the Toxicity % (A549 cell line; A549, Conc. 0.0487 µMol) was 1.8%. It also gave a Viability % (A549 cell line; A549, Conc. 0.0487 µMol) of 98.2%, a Toxicity % (A549 cell line; A549, Conc. 0.0975 µMol) of 2% and a Viability % (A549 cell line; A549, Conc. 0.0975 µMol) of 98%. It also gave a Toxicity % (A549 cell line; A549, Conc. 0.195 µMol) of 3.945%, a Viability % (A549 cell line; A549, Conc. 0.195 µMol) of 96.06% and a Toxicity % (A549 cell line; A549, Conc. 0.391 µMol) of 21.14%. For the same compound, the Viability % (A549 cell line; A549, Conc. 0.391 µMol) was 78.86%, the Toxicity % (A549 cell line; A549, Conc. 0.781 µMol) was 32.54% and the Viability % (A549 cell line; A549, Conc. 0.781 µMol) was 67.46%. For the same compound, the Toxicity % (A549 cell line; A549, Conc. 1.562 µMol) was 62.13%, the Viability % (A549 cell line; A549, Conc. 1.562 µMol) was 37.87% and the Toxicity % (A549 cell line; A549, Conc. 3.125 µMol) was 70.97%. It also gave a Viability % (A549 cell line; A549, Conc. 3.125 µMol) of 29.03%, a Toxicity % (A549 cell line; A549, Conc. 6.25 µMol) of 89.19% and a Viability % (A549 cell line; A549, Conc. 6.25 µMol) of 10.81%. The Toxicity % (A549 cell line; A549, Conc. 12.5 µMol) was 95.94%, the Viability % (A549 cell line; A549, Conc. 12.5 µMol) was 4.063% and the Toxicity % (A549 cell line; A549, Conc. 25 µMol) was 97.28%. For the same compound, the Viability % (A549 cell line; A549, Conc. 25 µMol) was 2.722% and the IC50 (A549 cell line) was 918 ± 2 nM.

With `CC(=O)C1C(c2ccc(N(C)C)cc2)c2c(C)nc(SCC(N)=O)c(C#N)c2CC1(C)O` (stereo not drawn) [Compound 5, 2-[(7-Acetyl-4-cyano-1,6-dimethyl-6-hydroxy-8-(4-N,N-dimethylamino-phenyl)-5,6,7,8-tetrahydroisoquinolin-3-yl)thio]acetamide] the IC50 (MCF7 cell line) was 924 ± 7 nM, the Toxicity % (MCF7 cell line; MCF7, 0.0487 µMol) was -4.567% and the Viability % (MCF7 cell line; MCF7, 0.0487 µMol) was 104.5%. The Toxicity % (MCF7 cell line; MCF7, 0.0975 µMol) was -3.545%, the Viability % (MCF7 cell line; MCF7, 0.0975 µMol) was 103.6% and the Toxicity % (MCF7 cell line; MCF7, 0.195 µMol) was -2.859%. It also gave a Viability % (MCF7 cell line; MCF7, 0.195 µMol) of 102.9%, a Toxicity % (MCF7 cell line; MCF7, 0.391 µMol) of 4.208% and a Viability % (MCF7 cell line; MCF7, 0.391 µMol) of 95.79%. It also gave a Toxicity % (MCF7 cell line; MCF7, 0.781 µMol) of 35.46%, a Viability % (MCF7 cell line; MCF7, 0.781 µMol) of 64.54% and a Toxicity % (MCF7 cell line; MCF7, 1.562 µMol) of 77.53%. The Viability % (MCF7 cell line; MCF7, 1.562 µMol) was 22.47%, the Toxicity % (MCF7 cell line; MCF7, 3.125 µMol) was 88.89% and the Viability % (MCF7 cell line; MCF7, 3.125 µMol) was 11.11%. The Toxicity % (MCF7 cell line; MCF7, 6.25 µMol) was 93.91%, the Viability % (MCF7 cell line; MCF7, 6.25 µMol) was 6.087% and the Toxicity % (MCF7 cell line; MCF7, 12.5 µMol) was 96.85%. For the same compound, the Viability % (MCF7 cell line; MCF7, 12.5 µMol) was 3.145%, the Toxicity % (MCF7 cell line; MCF7, 25 µMol) was 97.22% and the Viability % (MCF7 cell line; MCF7, 25 µMol) was 2.778%. It also gave a Toxicity % (A549 cell line; A549, Conc. 0.0487 µMol) of 0%, a Viability % (A549 cell line; A549, Conc. 0.0487 µMol) of 100% and a Toxicity % (A549 cell line; A549, Conc. 0.0975 µMol) of 0.13%. The Viability % (A549 cell line; A549, Conc. 0.0975 µMol) was 99.87%, the Toxicity % (A549 cell line; A549, Conc. 0.195 µMol) was 0.3156% and the Viability % (A549 cell line; A549, Conc. 0.195 µMol) was 99.68%. The Toxicity % (A549 cell line; A549, Conc. 0.391 µMol) was 9.625%, the Viability % (A549 cell line; A549, Conc. 0.391 µMol) was 90.37% and the Toxicity % (A549 cell line; A549, Conc. 0.781 µMol) was 36.96%. The Viability % (A549 cell line; A549, Conc. 0.781 µMol) was 63.04%, the Toxicity % (A549 cell line; A549, Conc. 1.562 µMol) was 54.08% and the Viability % (A549 cell line; A549, Conc. 1.562 µMol) was 45.92%. It also gave a Toxicity % (A549 cell line; A549, Conc. 3.125 µMol) of 69.66%, a Viability % (A549 cell line; A549, Conc. 3.125 µMol) of 30.34% and a Toxicity % (A549 cell line; A549, Conc. 6.25 µMol) of 83.27%. It also gave a Viability % (A549 cell line; A549, Conc. 6.25 µMol) of 16.73%, a Toxicity % (A549 cell line; A549, Conc. 12.5 µMol) of 91.6% and a Viability % (A549 cell line; A549, Conc. 12.5 µMol) of 8.402%. The Toxicity % (A549 cell line; A549, Conc. 25 µMol) was 96.37%, the Viability % (A549 cell line; A549, Conc. 25 µMol) was 3.629% and the IC50 (A549 cell line) was 1247 ± 2 nM.

With `CC(=O)C1C(c2ccc(N(C)C)cc2)c2c(C)nc3sc(C(=O)Nc4ccc(C)cc4)c(N)c3c2CC1(C)O` (stereo not drawn) [Compound 8b, 7-Acetyl-1-amino-5,8-dimethyl-8-hydroxy-6-(4-N,N-dimethylaminophenyl)-N-(4-tolyl)-6,7,8,9-tetrahydrothieno[2,3-c]isoquinoline-2-carboxamide] the IC50 (MCF7 cell line) was 3800 ± 8 nM, the Toxicity % (MCF7 cell line; MCF7, Conc. 0.0487 µMol) was 0.0678% and the Viability % (MCF7 cell line; MCF7, Conc. 0.0487 µMol) was 99.9322%. It also gave a Toxicity % (MCF7 cell line; MCF7, Conc. 0.0975 µMol) of 0.1234%, a Viability % (MCF7 cell line; MCF7, Conc. 0.0975 µMol) of 99.8766% and a Toxicity % (MCF7 cell line; MCF7, Conc. 0.195 µMol) of 0.2042%. For the same compound, the Viability % (MCF7 cell line; MCF7, Conc. 0.195 µMol) was 99.8%, the Toxicity % (MCF7 cell line; MCF7, Conc. 0.391 µMol) was -0.2042% and the Viability % (MCF7 cell line; MCF7, Conc. 0.391 µMol) was 100.2%. For the same compound, the Toxicity % (MCF7 cell line; MCF7, Conc. 0.781 µMol) was 2.124%, the Viability % (MCF7 cell line; MCF7, Conc. 0.781 µMol) was 97.88% and the Toxicity % (MCF7 cell line; MCF7, Conc. 1.562 µMol) was 13.36%. For the same compound, the Viability % (MCF7 cell line; MCF7, Conc. 1.562 µMol) was 86.64%, the Toxicity % (MCF7 cell line; MCF7, Conc. 3.125 µMol) was 24.63% and the Viability % (MCF7 cell line; MCF7, Conc. 3.125 µMol) was 75.37%. For the same compound, the Toxicity % (MCF7 cell line; MCF7, Conc. 6.25 µMol) was 60.13%, the Viability % (MCF7 cell line; MCF7, Conc. 6.25 µMol) was 39.87% and the Toxicity % (MCF7 cell line; MCF7, Conc. 12.5 µMol) was 88.07%. For the same compound, the Viability % (MCF7 cell line; MCF7, Conc. 12.5 µMol) was 11.93%, the Toxicity % (MCF7 cell line; MCF7, Conc. 25 µMol) was 96.69% and the Viability % (MCF7 cell line; MCF7, Conc. 25 µMol) was 3.309%. For the same compound, the Toxicity % (A549 cell line; A549, Conc. 0.04875 µMol) was 8.929%, the Toxicity % (A549 cell line; A549, Conc. 0.0975 µMol) was 10.49% and the Toxicity % (A549 cell line; A549, Conc. 0.195 µMol) was 12.58%. For the same compound, the Viability % (A549 cell line; A549, Conc. 0.195 µMol) was 87.42%, the Toxicity % (A549 cell line; A549, Conc. 0.391 µMol) was 21.42% and the Viability % (A549 cell line; A549, Conc. 0.391 µMol) was 78.58%. The Toxicity % (A549 cell line; A549, Conc. 0.781 µMol) was 51.95%, the Viability % (A549 cell line; A549, Conc. 0.781 µMol) was 48.05% and the Toxicity % (A549 cell line; A549, Conc. 1.562 µMol) was 61.42%. For the same compound, the Viability % (A549 cell line; A549, Conc. 1.562 µMol) was 38.58%, the Toxicity % (A549 cell line; A549, Conc. 3.125 µMol) was 70.69% and the Viability % (A549 cell line; A549, Conc. 3.125 µMol) was 29.31%. It also gave a Toxicity % (A549 cell line; A549, Conc. 6.25 µMol) of 84.3%, a Viability % (A549 cell line; A549, Conc. 6.25 µMol) of 15.7% and a Toxicity % (A549 cell line; A549, Conc. 12.5 µMol) of 93.25%. The Viability % (A549 cell line; A549, Conc. 12.5 µMol) was 6.746%, the Toxicity % (A549 cell line; A549, Conc. 25 µMol) was 96.06% and the Viability % (A549 cell line; A549, Conc. 25 µMol) was 3.945%. The IC50 (A549 cell line) was 527 ± 2 nM.
